Experimental data: US6972296B2, “Carboxylic acid derivatives that inhibit the binding of integrins to their receptors” (Encysive Pharmaceuticals Inc., priority 1999, dated 2005)
Blank lines part the entries; values can stand above or below the compound they belong to.

Target: T1, α4β1 integrin (Homo sapiens, UniProt P05556+P13612)
T1 construct: endogenous in cells; host or cells: Ramos cells
Assay: Adhesion of calcein-labeled Ramos cells to CS1 (fibronectin) peptide conjugated ovalbumin
Type: cell-based
Details: Ramos cell adhesion to CS1 conjugated ovalbumin
How it was run: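 Plates bearing CS1 fibronectin peptide coupled to ovalbumin (0.5 μg/ml coat, 3% BSA block) received calcein-labelled Ramos cells plus compound (100 μM stated) for 30 min at 37 °C. Buffer was TBS pH 7.5 with 1 mM Mg2+, Ca2+, Mn2+; bound cells quantified by fluorescence after lysis; […].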

[1] = Table 5, dose required to give 50% inhibition
[2] = Table 7, dose required to give 50% inhibition

T1 sequence (P13612 34-1032): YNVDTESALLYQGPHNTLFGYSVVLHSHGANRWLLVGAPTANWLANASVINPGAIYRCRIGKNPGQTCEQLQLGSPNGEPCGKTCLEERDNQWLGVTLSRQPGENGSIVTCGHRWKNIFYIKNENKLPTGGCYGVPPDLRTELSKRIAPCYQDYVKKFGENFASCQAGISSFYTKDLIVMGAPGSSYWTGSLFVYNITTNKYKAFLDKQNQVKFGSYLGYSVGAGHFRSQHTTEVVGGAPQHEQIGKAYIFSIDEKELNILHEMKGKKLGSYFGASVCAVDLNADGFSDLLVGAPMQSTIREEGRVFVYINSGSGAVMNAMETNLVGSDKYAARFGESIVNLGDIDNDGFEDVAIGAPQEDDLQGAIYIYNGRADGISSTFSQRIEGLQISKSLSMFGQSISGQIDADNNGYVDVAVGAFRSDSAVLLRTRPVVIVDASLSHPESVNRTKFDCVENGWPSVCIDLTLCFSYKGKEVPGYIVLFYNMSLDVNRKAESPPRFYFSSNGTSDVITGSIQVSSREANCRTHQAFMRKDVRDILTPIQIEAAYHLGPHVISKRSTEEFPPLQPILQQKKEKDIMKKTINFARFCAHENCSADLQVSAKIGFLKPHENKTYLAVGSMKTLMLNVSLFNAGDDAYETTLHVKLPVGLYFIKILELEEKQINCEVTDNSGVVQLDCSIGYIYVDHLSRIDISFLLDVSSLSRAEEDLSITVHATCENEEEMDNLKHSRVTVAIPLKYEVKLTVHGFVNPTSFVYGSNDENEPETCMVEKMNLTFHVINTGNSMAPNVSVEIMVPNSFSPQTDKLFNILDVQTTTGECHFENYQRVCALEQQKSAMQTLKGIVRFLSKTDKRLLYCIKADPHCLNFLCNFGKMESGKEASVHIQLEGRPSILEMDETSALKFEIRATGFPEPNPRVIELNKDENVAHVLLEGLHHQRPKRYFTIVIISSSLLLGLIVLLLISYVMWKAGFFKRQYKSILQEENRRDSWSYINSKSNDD
T1 sequence (P05556 21-798): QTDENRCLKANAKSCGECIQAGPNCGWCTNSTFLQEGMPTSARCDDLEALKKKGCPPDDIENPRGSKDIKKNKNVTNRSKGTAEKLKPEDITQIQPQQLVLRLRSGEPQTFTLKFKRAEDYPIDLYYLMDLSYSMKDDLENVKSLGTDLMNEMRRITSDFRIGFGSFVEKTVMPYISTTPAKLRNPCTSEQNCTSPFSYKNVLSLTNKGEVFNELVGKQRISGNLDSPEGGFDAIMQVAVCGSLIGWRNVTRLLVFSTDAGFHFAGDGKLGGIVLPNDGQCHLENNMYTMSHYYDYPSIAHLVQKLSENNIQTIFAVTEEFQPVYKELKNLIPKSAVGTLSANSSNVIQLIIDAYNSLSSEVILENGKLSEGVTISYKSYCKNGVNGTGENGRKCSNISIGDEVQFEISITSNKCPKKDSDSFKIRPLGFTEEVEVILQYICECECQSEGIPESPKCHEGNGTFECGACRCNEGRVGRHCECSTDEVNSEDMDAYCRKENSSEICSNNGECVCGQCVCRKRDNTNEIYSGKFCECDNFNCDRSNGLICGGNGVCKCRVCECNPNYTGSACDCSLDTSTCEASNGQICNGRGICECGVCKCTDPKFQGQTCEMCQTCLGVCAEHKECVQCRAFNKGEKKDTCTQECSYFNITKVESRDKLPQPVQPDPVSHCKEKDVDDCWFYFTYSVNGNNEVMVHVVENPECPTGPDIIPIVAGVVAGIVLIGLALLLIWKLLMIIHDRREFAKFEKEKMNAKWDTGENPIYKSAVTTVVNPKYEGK

SMILES: Cc1ccc([C@H](CC(=O)O)NC(=O)Nc2c(-c3ccccn3)nc(C)n(Cc3ccccc3)c2=O)cc1
- IC50 (Table 3, 30 minutes at 37° C.): 25 nM
- IC50 (Table 4, 30 minutes at 37° C.): 25 nM

SMILES: Cc1ccc([C@H](CC(=O)O)NC(=O)Nc2cnc(C)n(Cc3ccccc3)c2=O)cc1 [(3S)-3-[({[2-methyl-6-oxo-1-(phenylmethyl)-1,6-dihydro-5-pyrimidinyl]amino}carbonyl)amino]-3-(4-methylphenyl)propanoic acid]
- IC50 (Table 4, 30 minutes at 37° C.): 100 nM

SMILES: COc1ccccc1Cn1ccc(O)c(NC(=O)N[C@@H](CC(=O)O)c2ccc(C)cc2)c1=O
- IC50 [1]: 80 nM

SMILES: CCOc1ccc(Cl)c(Cl)c1Cn1c2c(c(O)c(NC(=O)N[C@@H](CC(=O)O)c3cccc(OC(C)C)c3)c1=O)CCC2
- IC50 [2]: 5 nM

SMILES: Cc1ccc([C@H](CC(=O)O)NC(=O)Nc2c(O)ccn(Cc3ccccc3OC(F)F)c2=O)cc1
- IC50 [1]: 75 nM

SMILES: O=C(O)C[C@H](NC(=O)N[C@H]1CCN(Cc2cccs2)C1=O)c1ccc2c(c1)OCO2 [(3S)-3-(1,3-benzodioxol-5-yl)-3-[({[(3S)-2-oxo-1-(2-thienylmethyl)tetrahydro-1H-pyrrol-3-yl]amino}carbonyl)amino]propanoic acid]
- IC50 (Table 2, 30 minutes at 37° C.): 15000 nM

SMILES: Cc1ccc([C@H](CC(=O)O)NC(=O)Nc2c(O)ccn(Cc3cc(C(F)(F)F)cc(C(F)(F)F)c3)c2=O)cc1
- IC50 [1]: 300 nM

SMILES: O=C(O)C[C@H](NC(=O)Nc1cccc(NCc2cccs2)c1)c1ccc2c(c1)OCO2
- IC50 (Table 4, 30 minutes at 37° C.): 5000 nM

SMILES: Cc1ccc([C@H](CC(=O)O)NC(=O)Nc2cccn(Cc3ccc(Cl)cc3Br)c2=O)cc1
- IC50 (Table 4, 30 minutes at 37° C.): 1000 nM

SMILES: CC(=O)Nc1ccc(Br)c(Cn2cccc(NC(=O)N[C@@H](CC(=O)O)c3ccc(C)cc3)c2=O)c1
- IC50 (Table 4, 30 minutes at 37° C.): 200 nM

SMILES: CCOc1cc([C@H](CC(=O)O)NC(=O)Nc2c(O)c3c(n(Cc4c(C)cccc4Cl)c2=O)CCC3)ccc1Cl
- IC50 [2]: 25 nM

SMILES: CCCc1cn(Cc2c(Cl)cccc2OC)c(=O)c(NC(=O)N[C@@H](CC(=O)O)c2cccc(OCC)c2)c1O
- IC50 (Table 6, 30 minutes at 37° C.): 7 nM

SMILES: O=C(O)C[C@H](NC(=O)NC1CCCCN(Cc2ccccc2)C1=O)c1ccc2c(c1)OCO2 (stereo partly drawn)
- IC50 (Table 4, 30 minutes at 37° C.): 15 nM

SMILES: O=C(O)C[C@H](NC(=O)Nc1cccn(Cc2cccs2)c1=O)c1cccc(F)c1
- IC50 (Table 4, 30 minutes at 37° C.): 3000 nM

SMILES: Cc1ccc([C@H](CC(=O)O)NC(=O)Nc2cccn(Cc3cc(F)ccc3Br)c2=O)cc1
- IC50 (Table 4, 30 minutes at 37° C.): 500 nM

SMILES: Cc1ccc([C@H](CC(=O)O)NC(=O)Nc2cccn(Cc3ccccc3F)c2=O)cc1
- IC50 (Table 4, 30 minutes at 37° C.): 100 nM

SMILES: Cc1ccc([C@H](CC(=O)O)NC(=O)Nc2cccn(Cc3cccc(O)c3)c2=O)cc1
- IC50 (Table 4, 30 minutes at 37° C.): 200 nM

SMILES: Cc1ccc([C@H](CC(=O)O)NC(=O)Nc2cc(Cl)cc(Cc3ccccc3)c2O)cc1 [(3S)-3-[({[5-chloro-2-hydroxy-3-(phenylmethyl)phenyl]amino}carbonyl)amino]-3-(4-methylphenyl)propanoic acid]
- IC50 (Table 4, 30 minutes at 37° C.): 8000 nM

SMILES: Cc1ccc([C@H](CC(=O)O)NC(=O)Nc2c(O)ccn(Cc3cccc(S(C)(=O)=O)c3)c2=O)cc1
- IC50 (Table 6, 30 minutes at 37° C.): 25 nM

SMILES: O=C(O)C[C@H](NC(=O)Nc1c(O)c2c(n(Cc3ccccc3Cl)c1=O)CCC2)c1cc(F)cc(F)c1
- IC50 [2]: 7 nM

SMILES: CC(C)C[C@H](CC(=O)O)NC(=O)Nc1c(N2CCOCC2)ccn(Cc2ccccc2Cl)c1=O
- IC50 (Table 4, 30 minutes at 37° C.): 100 nM

SMILES: COc1ccc([C@H](CC(=O)O)NC(=O)Nc2cccn(Cc3ccccc3Cl)c2=O)cc1
- IC50 (Table 4, 30 minutes at 37° C.): 100 nM

SMILES: O=C(O)C[C@H](NC(=O)Nc1cccn(Cc2cccs2)c1=O)c1ccc(C(F)(F)F)cc1
- IC50 (Table 4, 30 minutes at 37° C.): 1500 nM

SMILES: COc1ccc(Cn2ccc(O)c(NC(=O)N[C@@H](CC(=O)O)c3ccc(C)cc3)c2=O)cc1
- IC50 [1]: 20 nM

SMILES: CCOc1ncc([C@H](CC(=O)O)NC(=O)Nc2c(O)c3c(n(Cc4ccccc4Cl)c2=O)CCC3)c(OCC)n1
- IC50 [2]: 15 nM

SMILES: Cc1cccc(Cl)c1Cn1c2c(c(O)c(NC(=O)N[C@@H](CC(=O)O)c3cccc(OC(F)(F)F)c3)c1=O)CCC2
- IC50 [2]: 11 nM

SMILES: Cc1cccc(Cl)c1Cn1c2c(c(O)c(NC(=O)N[C@@H](CC(=O)O)c3ccc4[nH]ccc4c3)c1=O)CCC2 [(3S)-3-{[({1-[(2-chloro-6-methylphenyl)methyl]-4-hydroxy-2-oxo-2,5,6,7-tetrahydro-1H-cyclopenta[b]pyridin-3-yl}amino)carbonyl]amino}-3-(1H-indol-5-yl)propanoic acid]
- IC50 [2]: 2 nM

SMILES: CCOc1cc(OCC)cc([C@H](CC(=O)O)NC(=O)Nc2c(O)c(C)nn(Cc3ccccc3Cl)c2=O)c1
- IC50 (Table 6, 30 minutes at 37° C.): 10 nM

SMILES: Cc1cccc(Cl)c1Cn1c2c(c(O)c(NC(=O)N[C@@H](CC(=O)O)c3cccc(OC(C)C)c3)c1=O)CCC2
- IC50 [2]: 10 nM

SMILES: Cc1ccc([C@H](CC(=O)O)NC(=O)Nc2cccn(Cc3cc(NS(C)(=O)=O)ccc3Br)c2=O)cc1
- IC50 (Table 4, 30 minutes at 37° C.): 250 nM

SMILES: O=C(O)C[C@H](NC(=O)N1CCCCc2ccn(Cc3ccccc3)c(=O)c21)c1ccc2c(c1)OCO2 [(3S)-3-(1,3-benzodioxol-5-yl)-3-({[9-oxo-8-(phenylmethyl)-2,3,4,5,8,9-hexahydro-1H-pyrido[3,4-b]azepin-1-yl]carbonyl}amino)propanoic acid]
- IC50 (Table 3, 30 minutes at 37° C.): 4000 nM

SMILES: CCCOc1ccc([C@H](CC(=O)O)NC(=O)Nc2c(O)ccn(Cc3ccccc3Cl)c2=O)cc1OCCC [(3S)-3-[({[1-(2-chlorobenzyl)-4-hydroxy-2-oxo-1,2-dihydropyridin-3-yl]amino}carbonyl)amino]-3-(3,4-dipropoxyphenyl)propanoic acid]
- IC50 [1]: 3 nM

Next, values leading:

- IC50 [1]: 130 nM
SMILES: Cc1ccc([C@H](CC(=O)O)NC(=O)Nc2c(O)ccn(Cc3cccc(Cl)c3Cl)c2=O)cc1

- IC50 [1]: 80 nM
SMILES: Cc1ccccc1C[C@H](CC(=O)O)NC(=O)Nc1c(O)ccn(Cc2ccccc2Cl)c1=O

- IC50 [2]: 3 nM
SMILES: COc1ccc(Cl)c(Cn2cc(C)c(O)c(NC(=O)N[C@@H](CC(=O)O)c3ccc(C)cc3)c2=O)c1 [(3S)-3-[({[1-(2-chloro-5-methoxybenzyl)-4-hydroxy-5-methyl-2-oxo-1,2-dihydropyridin-3-yl]amino}carbonyl)amino]-3-(4-methylphenyl)propanoic acid]

- IC50 (Table 3, 30 minutes at 37° C.): 15 nM
SMILES: Cc1ccc([C@H](CC(=O)O)NC(=O)Nc2c(NCc3ccccn3)ccn(Cc3ccccc3Cl)c2=O)cc1

- IC50 (Table 6, 30 minutes at 37° C.): 100 nM
SMILES: Cc1ccc([C@H](CC(=O)O)NC(=O)Nc2c(O)c(C)cn(Cc3c(F)cccc3C(F)(F)F)c2=O)cc1

- IC50 (Table 3, 30 minutes at 37° C.): 20 nM
SMILES: COc1ccn(Cc2ccccc2Cl)c(=O)c1NC(=O)N[C@@H](CC(=O)O)c1ccc(C)cc1

- IC50 [1]: 25 nM
SMILES: CCCCc1cn(Cc2ccccc2Cl)c(=O)c(NC(=O)N[C@@H](CC(=O)O)c2ccc(C)cc2)c1O

- IC50 [2]: 4 nM
SMILES: CCCCOc1cccc([C@H](CC(=O)O)NC(=O)Nc2c(O)c(C)cn(Cc3c(Cl)cccc3OCC)c2=O)c1

- IC50 [2]: 18 nM
SMILES: Cc1cccc(-c2cccc([C@H](CC(=O)O)NC(=O)Nc3c(O)c(C)cn(Cc4ccccc4Cl)c3=O)c2)c1

- IC50 [2]: 5 nM
SMILES: Cc1cccc([C@H](CC(=O)O)NC(=O)Nc2c(O)c3c(n(Cc4ccccc4Cl)c2=O)CCC3)c1 [(3S)-3-[({[1-(2-chlorobenzyl)-4-hydroxy-2-oxo-2,5,6,7-tetrahydro-1H-cyclopenta[b]pyridin-3-yl]amino}carbonyl)amino]-3-(3-methylphenyl)propanoic acid]

- IC50 (Table 3, 30 minutes at 37° C.): 15 nM
SMILES: Cc1ccc([C@H](CC(=O)O)NC(=O)Nc2c(O)cc(C)n(Cc3ccccc3Cl)c2=O)cc1 [(3S)-3-{[({1-[(2-chlorophenyl)methyl]-4-hydroxy-6-methyl-2-oxo-1,2-dihydro-3-pyridinyl}amino)carbonyl]amino}-3-(4-methylphenyl)propanoic acid]

- IC50 (Table 6, 30 minutes at 37° C.): 20 nM
SMILES: Cc1ccc([C@H](CC(=O)O)NC(=O)Nc2c(O)c(C)cn(Cc3cc(F)ccc3C)c2=O)cc1

- IC50 (Table 6, 30 minutes at 37° C.): 30 nM
SMILES: O=C(O)C[C@H](NC(=O)Nc1c(O)ccn(Cc2ccccc2Cl)c1=O)c1ccc(OC(F)F)cc1

- IC50 (Table 6, 30 minutes at 37° C.): 18 nM
SMILES: Cc1ccc([C@H](CC(=O)O)NC(=O)Nc2c(O)c(C)nn(Cc3ccccc3Cl)c2=O)cc1

- IC50 [2]: 8 nM
SMILES: CCOc1cccc(Cl)c1Cn1cc(C)c(O)c(NC(=O)NC(CC(=O)O)c2ccco2)c1=O (stereo not drawn)

- IC50 [2]: 15 nM
SMILES: CCCOc1cccc([C@H](CC(=O)O)NC(=O)Nc2c(O)c3c(n(Cc4ccccc4Cl)c2=O)CCC3)c1

- IC50 [1]: 150 nM
SMILES: Cc1ccc(C[C@H](CC(=O)O)NC(=O)Nc2c(O)ccn(Cc3ccccc3Cl)c2=O)cc1

- IC50 [2]: 14 nM
SMILES: CCOc1cccc([C@H](CC(=O)O)NC(=O)Nc2c(O)c(C)cn(Cc3c(Cl)cccc3OCC(C)C)c2=O)c1

- IC50 (Table 6, 30 minutes at 37° C.): 25 nM
SMILES: COc1cc([C@H](CC(=O)O)NC(=O)Nc2c(O)c(C)cn(Cc3c(C)cccc3Cl)c2=O)ccc1C

- IC50 (Table 3, 30 minutes at 37° C.): 10 nM
SMILES: O=C(O)C[C@H](NC(=O)Nc1c(O)ccn(Cc2ccccc2Cl)c1=O)c1ccccc1 [(3S)-3-{[({1-[(2-chlorophenyl)methyl]-4-hydroxy-2-oxo-1,2-dihydro-3-pyridinyl}amino)carbonyl]amino}-3-phenylpropanoic acid]

- IC50 (Table 4, 30 minutes at 37° C.): 20 nM
SMILES: CCOc1ccc([C@H](CC(=O)O)NC(=O)Nc2c(O)ccn(Cc3ccccc3Cl)c2=O)cc1

- IC50 [2]: 25 nM
SMILES: Cc1cn(Cc2ccccc2Cl)c(=O)c(NC(=O)N[C@@H](CC(=O)O)c2cccc(-c3ccccc3F)c2)c1O

- IC50 (Table 4, 30 minutes at 37° C.): 2500 nM
SMILES: Cc1ccc([C@H](CC(=O)O)NC(=O)Nc2cccn(Cc3ccccc3-c3ccccc3)c2=O)cc1

- IC50 [2]: 9 nM
SMILES: O=C(O)C[C@H](NC(=O)Nc1c(O)c2c(n(Cc3ccccc3Cl)c1=O)CCC2)c1ccc(F)cc1

- IC50 [2]: 23 nM
SMILES: Cc1ccc(-c2cccc([C@H](CC(=O)O)NC(=O)Nc3c(O)c(C)cn(Cc4ccccc4Cl)c3=O)c2)cc1

- IC50 (Table 6, 30 minutes at 37° C.): 14 nM
SMILES: CCOc1cccc([C@H](CC(=O)O)NC(=O)Nc2c(O)c(C3CC3)cn(Cc3ccccc3Cl)c2=O)c1

- IC50 (Table 6, 30 minutes at 37° C.): 3 nM
SMILES: COc1cccc(Cl)c1Cn1cc(C)c(O)c(NC(=O)N[C@@H](CC(=O)O)c2ccc(C)c(C)c2)c1=O

- IC50 [2]: 15 nM
SMILES: CCOc1ccc2cc([C@H](CC(=O)O)NC(=O)Nc3c(O)c4c(n(Cc5ccccc5Cl)c3=O)CCC4)ccc2c1

- IC50 (Table 6, 30 minutes at 37° C.): 15 nM
SMILES: COc1ccc2cc(C(CC(=O)O)NC(=O)Nc3c(O)ccn(Cc4ccccc4Cl)c3=O)ccc2c1 (stereo not drawn)

- IC50 [1]: 20 nM
SMILES: COc1cc([C@H](CC(=O)O)NC(=O)Nc2c(O)c(C)cn(Cc3ccccc3Cl)c2=O)ccc1C
